# Source: patent US20020026053A1, “Novel 3-(substituted) -2- indolinones compounds and use thereof as inhibitors of protein kinase activity” (priority 1997, published 2002)
# Tested on: FLK-1 receptor
# Test: FLK-1 Assay (cellular/catalytic ELISA, VEGF-stimulated phosphotyrosine)
# Format: cell-based
# Parameters: concentration or dose not given beside the values
# Conditions: protocol P.110
# How it was run: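 Receptor phosphotyrosine ELISA: Flk-1-expressing NIH3T3 C7#3 cells, starved overnight in 0.1% FBS medium, received compound (1:200 final dilution, 0.5% DMSO) for 2 h at 37 °C, then VEGF. Anti-FLK-1-captured receptor was probed with anti-phosphotyrosine UB40 and peroxidase/ABTS read-out, relative to cells without compound.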
row,SMILES,Flk Kinase % Inhibition (P.110) [%]
1,Cc1ccc(C)c(C=C2C(=O)Nc3c(Br)cc(Br)c(C)c32)c1 [10737/H07],15.5
2,Cc1c(Br)cc(Br)c2c1C(=Cc1ccc3ccccc3c1)C(=O)N2 [10737/H08],10.0
3,Cc1c(Br)cc(Br)c2c1C(=Cc1ccc(Oc3ccccc3)cc1)C(=O)N2 [10737/H09],5.5
4,Cc1c(Br)cc(Br)c2c1C(=Cc1cccc(Oc3ccc(C(C)(C)C)cc3)c1)C(=O)N2 [10737/H10],10.5
5,Cc1c(Br)cc(Br)c2c1C(=Cc1cccc(Oc3cccc(C(F)(F)F)c3)c1)C(=O)N2 [10737/H11],14.5
6,Cc1ccc(Oc2cccc(C=C3C(=O)Nc4c(Br)cc(Br)cc43)c2)cc1 [10738/A02],−14.2
7,O=C1Nc2c(Br)cc(Br)cc2C1=Cc1cccc(Oc2ccc(Cl)c(Cl)c2)c1 [10738/A03],12.8
8,COc1ccc(C=C2C(=O)Nc3c(Br)cc(Br)cc32)cc1O [10738/A04],−16.2
9,O=C1Nc2c(Br)cc(Br)cc2C1=Cc1cc(O)ccc1[N+](=O)[O-] [10738/A05],−24.5
10,O=C1Nc2c(Br)cc(Br)cc2C1=Cc1cccc(O)c1O [10738/A06],77.3
11,O=C1Nc2c(Br)cc(Br)cc2C1=Cc1cc(O)cc(O)c1 [10738/A07],−22.1
12,O=C1Nc2c(Br)cc(Br)cc2C1=Cc1ccc(Cl)c(Cl)c1 [10738/A08],−9.3
13,COc1ccccc1C=C1C(=O)Nc2c(Br)cc(Br)cc21 [10738/A09],−9.8
14,CC(C)c1ccc(C=C2C(=O)Nc3c(Br)cc(Br)cc32)cc1 [10738/A10],−8.5
15,CCCOc1ccc(C=C2C(=O)Nc3c(Br)cc(Br)cc32)cc1 [10738/A11],−7.5
16,Cc1ccc(Oc2cccc(C=C3C(=O)Nc4ccc(I)cc43)c2)cc1 [10738/B02],−8.5
17,O=C1Nc2ccc(I)cc2C1=Cc1cccc(Oc2ccc(Cl)c(Cl)c2)c1 [10738/B03],−1.2
18,COc1ccc(C=C2C(=O)Nc3ccc(I)cc32)cc1O [10738/B04],55.0
19,O=C1Nc2ccc(I)cc2C1=Cc1cc(O)ccc1[N+](=O)[O-] [10738/B05],−13.1

row,SMILES,Flk Kinase % Inhibition (P.110) [%]
1,O=C1Nc2ccc(I)cc2C1=Cc1cccc(O)c1O [10738/B06],−44.1
2,O=C1Nc2ccc(I)cc2C1=Cc1cc(O)cc(O)c1 [10738/B07],−22.7
3,O=C1Nc2ccc(I)cc2C1=Cc1ccc(Cl)c(Cl)c1 [10738/B08],−0.7
4,COc1ccccc1C=C1C(=O)Nc2ccc(I)cc21 [10738/B09],−6.2
5,CC(C)c1ccc(C=C2C(=O)Nc3ccc(I)cc32)cc1 [10738/B10],14.3
6,CCCOc1ccc(C=C2C(=O)Nc3ccc(I)cc32)cc1 [10738/B11],8.8
7,Cc1ccc(Oc2cccc(C=C3C(=O)Nc4ccc(Br)c(C)c43)c2)cc1 [10738/C02],−0.1
8,Cc1c(Br)ccc2c1C(=Cc1cccc(Oc3ccc(Cl)c(Cl)c3)c1)C(=O)N2 [10738/C03],28.0
9,COc1ccc(C=C2C(=O)Nc3ccc(Br)c(C)c32)cc1O [10738/C04],84.2
10,Cc1c(Br)ccc2c1C(=Cc1cc(O)ccc1[N+](=O)[O-])C(=O)N2 [10738/C05],−4.4
11,Cc1c(Br)ccc2c1C(=Cc1cccc(O)c1O)C(=O)N2 [10738/C06],−68.1
12,Cc1c(Br)ccc2c1C(=Cc1cc(O)cc(O)c1)C(=O)N2 [10738/C07],−7.4
13,Cc1c(Br)ccc2c1C(=Cc1ccc(Cl)c(Cl)c1)C(=O)N2 [10738/C08],−7.4
14,COc1ccccc1C=C1C(=O)Nc2ccc(Br)c(C)c21 [10738/C09],4.5
15,Cc1c(Br)ccc2c1C(=Cc1ccc(C(C)C)cc1)C(=O)N2 [10738/C10],−2.5
16,CCCOc1ccc(C=C2C(=O)Nc3ccc(Br)c(C)c32)cc1 [10738/C11],8.4
17,CNS(=O)(=O)c1ccc2c(c1)C(=Cc1cccc(Oc3ccc(C)cc3)c1)C(=O)N2 [10738/D02],2.8
18,CNS(=O)(=O)c1ccc2c(c1)C(=Cc1cccc(Oc3ccc(Cl)c(Cl)c3)c1)C(=O)N2 [10738/D03],13.6
19,CNS(=O)(=O)c1ccc2c(c1)C(=Cc1ccc(OC)c(O)c1)C(=O)N2 [10738/D04],−13.1

row,SMILES,Flk Kinase % Inhibition (P.110) [%]
1,CNS(=O)(=O)c1ccc2c(c1)C(=Cc1cc(O)ccc1[N+](=O)[O-])C(=O)N2 [10738/D05],−12.5
2,CNS(=O)(=O)c1ccc2c(c1)C(=Cc1cccc(O)c1O)C(=O)N2 [10738/D06],−26.7
3,CNS(=O)(=O)c1ccc2c(c1)C(=Cc1cc(O)cc(O)c1)C(=O)N2 [10738/D07],10.3
4,CNS(=O)(=O)c1ccc2c(c1)C(=Cc1ccc(Cl)c(Cl)c1)C(=O)N2 [10738/D08],11.9
5,CNS(=O)(=O)c1ccc2c(c1)C(=Cc1ccccc1OC)C(=O)N2 [10738/D09],9.4
6,CNS(=O)(=O)c1ccc2c(c1)C(=Cc1ccc(C(C)C)cc1)C(=O)N2 [10738/D10],15.4
7,CCCOc1ccc(C=C2C(=O)Nc3ccc(S(=O)(=O)NC)cc32)cc1 [10738/D11],10.4
8,Cc1ccc(Oc2cccc(C=C3C(=O)Nc4ccc(S(=O)(=O)Nc5ccc(C(F)(F)F)cc5)cc43)c2)cc1 [10738/E02],3.6
9,O=C1Nc2ccc(S(=O)(=O)Nc3ccc(C(F)(F)F)cc3)cc2C1=Cc1cccc(Oc2ccc(Cl)c(Cl)c2)c1 [10738/E03],7.8
10,COc1ccc(C=C2C(=O)Nc3ccc(S(=O)(=O)Nc4ccc(C(F)(F)F)cc4)cc32)cc1O [10738/E04],−11.5
11,O=C1Nc2ccc(S(=O)(=O)Nc3ccc(C(F)(F)F)cc3)cc2C1=Cc1cc(O)ccc1[N+](=O)[O-] [10738/E05],−4.8
12,O=C1Nc2ccc(S(=O)(=O)Nc3ccc(C(F)(F)F)cc3)cc2C1=Cc1cccc(O)c1O [10738/E06],10.1
13,O=C1Nc2ccc(S(=O)(=O)Nc3ccc(C(F)(F)F)cc3)cc2C1=Cc1cc(O)cc(O)c1 [10738/E07],43.4
14,O=C1Nc2ccc(S(=O)(=O)Nc3ccc(C(F)(F)F)cc3)cc2C1=Cc1ccc(Cl)c(Cl)c1 [10738/E08],12.8
15,COc1ccccc1C=C1C(=O)Nc2ccc(S(=O)(=O)Nc3ccc(C(F)(F)F)cc3)cc21 [10738/E09],21.2
16,CC(C)c1ccc(C=C2C(=O)Nc3ccc(S(=O)(=O)Nc4ccc(C(F)(F)F)cc4)cc32)cc1 [10738/E10],5.1
17,CCCOc1ccc(C=C2C(=O)Nc3ccc(S(=O)(=O)Nc4ccc(C(F)(F)F)cc4)cc32)cc1 [10738/E11],10.2
18,Cc1ccc(Oc2cccc(C=C3C(=O)Nc4ccc(S(=O)(=O)N5CCOCC5)cc43)c2)cc1 [10738/F02],15.0
